Here are results for nine compounds from ChEMBL document CHEMBL1772970, “Potent bivalent Smac mimetics: effect of the linker on binding to inhibitor of apoptosis proteins (IAPs) and anticancer activity” (J Med Chem, 2011).

The IC50 is the concentration needed to halve the response being measured. Read a high IC50 as a need for much substance. The term Ki denotes the equilibrium dissociation constant of an inhibitor or competing ligand from its target. A lower Ki goes with a stronger hold on the target.

Calls of active or inactive are those of the source. The calls are words filed in the database; no cut-off is given here. Some results are limits rather than exact numbers.

Series [1] concerns Mus musculus. As to the kind of experiment: Toxicity in SCID mouse xenografted with human MDA-MB-231 cells assessed as weight loss at 5 mg/kg, iv administered on day 1 to 5 and 8 to 12 post tumor implantation. The format is organism-based. The arrangement: dose 5 mg/kg, route intravenous. Particulars: in vivo. Background: A xenograft is tissue or cells of one species grown in another, often human tumour cells in immunodeficient mice.

The subject of series [2] is MDA-MB-231. The conditions noted are these: Homo sapiens, 5 mg/kg.
For series [3], the system named is MDA-MB-231. As to the kind of experiment: Antitumor activity against human MDA-MB-231 cells xenografted in SCID mouse assessed as tumor size at 5 mg/kg, iv administered on day 1 to 5 and 8 to 12 post tumor implantation measured on day 50 (reference value: 1136 mm'3). Type of series: functional.
In series [4] the test system is MDA-MB-231. As to the kind of experiment: Antitumor activity against human MDA-MB-231 cells xenografted in SCID mouse assessed as inhibition tumor growth intravenously administered on day 1 to 5 and 8 to 12 post tumor implantation. Type of series: functional, cell-based.
Series [5] deals with MDA-MB-231. Kind of series: Drug uptake in human MDA-MB-231 cells assessed as intracellular concentration at 300 nM after 1 min by LC-MS/MS. Type of series: ADME, cell-based. Particulars: mda-mb-231, 1 min, 0.3 µM.
Series [6] relates to MDA-MB-231. As to the kind of experiment: Induction of apoptosis in human MDA-MB-231 cells assessed as PARP cleavage at 30 nM after 24 hrs by Western blotting. Type of series: functional, cell-based.
Series [7] deals with MDA-MB-231. As to the kind of experiment: Induction of apoptosis in human MDA-MB-231 cells assessed as caspase-3 processing at 30 nM after 24 hrs by Western blotting. Type of series: functional, cell-based. A general note: Immunoblotting shows a protein as a band on a membrane.
Series [8] deals with MDA-MB-231. Kind of series: Drug uptake in human MDA-MB-231 cells assessed as intracellular concentration at 300 nM after 3 hrs by LC-MS/MS. Particulars: mda-mb-231, 3 h, 0.3 µM. Type of series: ADME, cell-based.
The subject of series [9] is MDA-MB-231. Kind of series: Induction of apoptosis in human MDA-MB-231 cells assessed as cIAP2 degradation at 1 nM after 24 hrs by Western blotting. Type of series: functional, cell-based.
Series [10] deals with T1, Baculoviral IAP repeat-containing protein 2 (Homo sapiens, UniProt Q13490). As to the kind of experiment: Competitive inhibition of human cIAP1 BIR3 domain after 2 to 3 hrs by fluorescence polarization assay. On the technique in general: In fluorescence polarisation assays a small probe gives low polarisation when free and higher when bound to something large.
The target in series [11] is T1, Baculoviral IAP repeat-containing protein 2. Kind of series: Competitive inhibition of human cIAP1BIR2-BIR3 domain after 2 to 3 hrs by fluorescence polarization assay.
Series [12] relates to MDA-MB-231. As to the kind of experiment: Induction of apoptosis in human MDA-MB-231 cells assessed as PARP cleavage at 3 nM after 24 hrs by Western blotting. Type of series: functional, cell-based.
The target of series [13] is T1, Baculoviral IAP repeat-containing protein 2. Kind of series: Binding affinity to human cIAP1 BIR3 domain after 2 to 3 hrs by fluorescence polarization-based assay.
The test system of series [14] is MDA-MB-231. Kind of series: Induction of apoptosis in human MDA-MB-231 cells assessed as cIAP1 degradation at 1 nM after 24 hrs by Western blotting. The format is functional, cell-based.
For series [15], the system named is MDA-MB-231. Kind of series: Induction of apoptosis in human MDA-MB-231 cells assessed as caspase-3 processing at 3 nM after 24 hrs by Western blotting. The format is functional, cell-based.
Series [16] deals with MDA-MB-231. Kind of series: cells. The conditions noted are these: Homo sapiens.
For series [17], the target named is T1, Baculoviral IAP repeat-containing protein 2. As to the kind of experiment: Binding affinity to human cIAP1 BIR2-BIR3 domain after 2 to 3 hrs by fluorescence polarization-based assay.
Series [18] deals with T2, E3 ubiquitin-protein ligase XIAP (Homo sapiens, UniProt P98170). As to the kind of experiment: Competitive inhibition of His-tagged human XIAP BIR3 domain expressed in Escherichia coli BL21(DE3) after 2 to 3 hrs by fluorescence polarization assay.
In series [19] the target is T2, E3 ubiquitin-protein ligase XIAP.
For series [20] the target is unchanged. Kind of series: Competitive inhibition of human XIAP linker BIR2-BIR3 domain expressed in Escherichia coli BL21(DE3) cells by fluorescence polarization-based assay.
The target is the same in series [21]. Kind of series: biochemical.
Series [22] concerns MDA-MB-231. As to the kind of experiment: Induction of apoptosis in human MDA-MB-231 cells assessed as caspase-3 processing at 10 nM after 24 hrs by Western blotting. The format is functional, cell-based.
In series [23] the test system is MDA-MB-231. As to the kind of experiment: Induction of apoptosis in human MDA-MB-231 cells assessed as cIAP2 degradation at 10 nM after 24 hrs by Western blotting. Type of series: functional, cell-based.
Series [24] relates to MDA-MB-231. As to the kind of experiment: Induction of apoptosis in human MDA-MB-231 cells assessed as cIAP1 degradation at 10 nM after 24 hrs by Western blotting. The format is functional, cell-based.
The subject of series [25] is Mus musculus. As to the kind of experiment: Toxicity in SCID mouse xenografted with human MDA-MB-231 cells assessed as weight loss at […], iv administered on day 2 and 9. Type of series: organism-based. The arrangement: dose 7.5 mg/kg, route intravenous. Particulars: in vivo.
Series [26] deals with MDA-MB-231. As to the kind of experiment: Induction of apoptosis in human MDA-MB-231 cells assessed as cIAP2 degradation at 30 nM after 24 hrs by Western blotting. Type of series: functional, cell-based.

As for `CN[C@@H](C)C(=O)N[C@H]1CCCC[C@H]2CC[C@@H](C(=O)N[C@@H](c3ccccc3)c3cn(CCCCCOCCCCCn4cc([C@@H](NC(=O)[C@@H]5CC[C@@H]6CCCC[C@H](NC(=O)[C@H](C)NC)C(=O)N65)c5ccccc5)nn4)nn3)N2C1=O`, the Activity result in series [1] is “Toxic”; in series [3] it was 269 mm3; in series [4] it was “Dose-dependent effect”. The inhibition entry in [2] was “Active”.
Consider `CN[C@@H](C)C(=O)N[C@H]1CCCC[C@H]2CC[C@@H](C(=O)N[C@@H](c3ccccc3)c3cn(Cc4ccc(Cn5cc([C@@H](NC(=O)[C@@H]6CC[C@@H]7CCCC[C@H](NC(=O)[C@H](C)NC)C(=O)N76)c6ccccc6)nn5)cc4)nn3)N2C1=O`, for which the Drug uptake is reported as 21.2 nM in [5] and 75.2 nM in series [8]. Also, the result in [6] and in series [7] was inactive.
For the compound `CN[C@@H](C)C(=O)N[C@H]1CCCC[C@H]2CC[C@@H](C(=O)N[C@@H](c3ccccc3)c3cn(CCCCc4ccc(CCCCn5cc([C@@H](NC(=O)[C@@H]6CC[C@@H]7CCCC[C@H](NC(=O)[C@H](C)NC)C(=O)N76)c6ccccc6)nn5)cc4)nn3)N2C1=O`, the result in series [9], in [12], in [14] and in series [15] was Active. For the same compound, the IC50 came out at 4.6 nM in [10], 5.7 nM in [11] and 3.3 nM in series [16]. For the same compound, the Drug uptake in series [5] was found to be 106 nM; in series [8], 541 nM. For the same compound, the Ki is < 1 nM in [13] and 1.5 nM in [17].
Consider `CC(=O)N[C@@H](Cc1c[nH]c2ccccc12)C(=O)N[C@H]1CCCC[C@H]2CC[C@@H](C(=O)N[C@@H](c3ccccc3)c3cn(CCCCc4ccc(CCCCn5cc([C@@H](NC(=O)[C@@H]6CC[C@@H]7CCCC[C@H](NC(=O)[C@H](Cc8c[nH]c9ccccc89)NC(C)=O)C(=O)N76)c6ccccc6)nn5)cc4)nn3)N2C1=O`, for which the IC50 was > 50000 nM in series [18], > 50000 nM in series [20] and > 100000 nM in series [16]. Also, the Ki in series [19] and in [21] was > 10000 nM each time.
As to `CN[C@@H](C)C(=O)N[C@H]1CCCC[C@H]2CC[C@@H](C(=O)N[C@@H](c3ccccc3)c3cn(CCCc4ccc(CCCn5cc([C@@H](NC(=O)[C@@H]6CC[C@@H]7CCCC[C@H](NC(=O)[C@H](C)NC)C(=O)N76)c6ccccc6)nn5)cc4)nn3)N2C1=O`, the outcome in [22], in [23], in series [12] and in [24] was Active.
For `CC(=O)O[C@@]12CO[C@@H]1C[C@H](O)[C@@]1(C)C(=O)[C@H](O)C3=C(C)[C@@H](OC(=O)[C@H](O)[C@@H](NC(=O)OC(C)(C)C)c4ccccc4)C[C@@](O)([C@@H](OC(=O)c4ccccc4)[C@H]21)C3(C)C.O.O.O` [DOCETAXEL], in series [25], the Activity entry is listed as “Toxic”.
For `CN[C@@H](C)C(=O)N[C@H]1CCCC[C@H]2CC[C@@H](C(=O)N[C@@H](c3ccccc3)c3cn(CCCCCCc4ccc(CCCCCCn5cc([C@@H](NC(=O)[C@@H]6CC[C@@H]7CCCC[C@H](NC(=O)[C@H](C)NC)C(=O)N76)c6ccccc6)nn5)cc4)nn3)N2C1=O`, the result in series [9], in series [12], in series [14] and in [15] was Active.
For the compound `CN[C@@H](C)C(=O)N[C@H]1CCCC[C@H]2CC[C@@H](C(=O)N[C@@H](c3ccccc3)c3cn(CCc4ccc(CCn5cc([C@@H](NC(=O)[C@@H]6CC[C@@H]7CCCC[C@H](NC(=O)[C@H](C)NC)C(=O)N76)c6ccccc6)nn5)cc4)nn3)N2C1=O`, in [26], the result was Active. The result in series [6] and in [7] was inactive. Besides, in [8], the Drug uptake is listed as 67.7 nM.
As to `CN[C@@H](C)C(=O)N[C@H]1CCCC[C@H]2CC[C@@H](C(=O)N[C@@H](c3ccccc3)c3cn(CCOCCOCCOCCn4cc([C@@H](NC(=O)[C@@H]5CC[C@@H]6CCCC[C@H](NC(=O)[C@H](C)NC)C(=O)N65)c5ccccc5)nn4)nn3)N2C1=O`, the figures for the Drug uptake in series [5] and in series [8] were 6.7 nM and 7.3 nM, respectively.
